{"source": "patent US6777396B2", "about": "“Feed for livestock” (Ajinomoto Co., Inc., priority 2000, dated 2004)", "key": {"weaned barrows [1]": {"system": "weaned barrows", "test": "Example 3: feeding trial in weaned piglets, glutamine and/or glutamic acid added to starter feed", "format": "in vivo", "source_text": "120 weaned barrows were used and divided into 4 groups (30 animals for each group, 6 replications with 5 animals per replication), namely a control group (C), a glutamine alone administration group (GLN), a glutamic acid alone administration group (GLU) and a glutamine+glutamic acid mixture administration group (GLN+GLU). Piglets were weaned at 17 days of age in average. Also, the GLN group was provided with an experimental feed prepared by adding crystalline glutamine at 1.2% per feed weight to the starter feed, the GLU group with an experimental feed prepared by adding crystalline glutamic acid at 1.2% per feed weight to the starter feed, and the GLN+GLU group with an experimental feed prepared by adding glutamine and glutamic acid at 0.12% and 1.08%, respectively, per feed weight to the starter feed. After two weeks passed, a common feed was fed to all groups. Body weight and residual feed weight were measured to calculate feed intake, body weight gain and feed efficiency on the 14th and 21st days after the weaning."}, "Small Intestinal Villi": {"system": "Small Intestinal Villi", "test": "Example 4: effect on recovery of small intestinal villi (villi length, crypt thickness by optical microscope)", "format": "in vivo, piglets", "details": "7th day after weaning", "source_text": "24 weaned barrows were used and divided into 4 groups (6 animals for each group), namely a control group (C), a nucleic acid alone administration group (N), a glutamic acid alone administration group (G) and a nucleic acid+glutamic acid mixture administration group (N+G). Piglets were weaned at 17 days of age in average. Also, the N group was provided with an experimental feed prepared by adding commercially available ribonucleic acid extracted from beer yeast (manufactured by Kirin Brewery CO., LTD.) at 0.8% per feed weight to the starter feed, the G group with an experimental feed prepared by adding crystalline glutamic acid at 1.2% per feed weight to the starter feed, and the N+G group with an experimental feed prepared by adding ribonucleic acid and glutamic acid at 0.12% of and 1.08%, respectively, per feed weight to the starter feed. On the 7th day after weaning, all piglets were sacrificed to collect the small intestines. After the preparation of tissue sections from the collected small intestines by a general procedure, the length of villi and the thickness of crypt were measured using optical microscope."}, "weaned barrows [2]": {"system": "weaned barrows", "test": "Example 2: feeding trial in weaned piglets, nucleic acid and/or glutamic acid added to starter feed", "format": "in vivo", "source_text": "120 weaned barrows were used and divided into 4 groups (30 animals for each group, 6 replications with 5 animals per replication), namely a control group (C), a nucleic acid alone administration group (N), a glutamic acid alone administration group (G) and a nucleic acid+glutamic acid mixture administration group (N+G). Piglets were weaned at 17 days of age in average. Also, the N group was provided with an experimental feed prepared by adding commercially available ribonucleic acid extracted from beer yeast (manufactured by Kirin Brewery CO., LTD.) at 0.8% per feed weight to the starter feed, the G group with an experimental feed prepared by adding crystalline glutamic acid at 1.2% per feed weight to the starter feed, and the N+G group with an experimental feed prepared by adding ribonucleic acid and glutamic acid at 0.12% and 1.08%, respectively, per feed weight to the starter feed. Body weight and residual feed weight were measured to calculate feed intake, body weight gain and feed efficiency on the 7th and 14th days after the weaning."}, "Weaned piglets": {"system": "Weaned piglets", "test": "Example 1: feeding trial in weaned piglets, nucleic acid and/or glutamine added to starter feed", "format": "in vivo", "source_text": "Weaned piglets, 72 barrows and 72 gilts were used and divided into 4 groups (36 animals for each group, 6 replications with 6 animals per replication), namely a control group (C), a nucleic acid alone administration group (N), a glutamine alone administration group (G) and a nucleic acid+glutamine mixture administration group (N+G). Piglets were weaned at 17 days of age in average. Also, the N group was provided with an experimental feed prepared by adding commercially available ribonucleic acid extracted from beer yeast (manufactured by Kirin Brewery CO., LTD.) at 0.8% per feed weight to the starter feed, the G group with an experimental feed prepared by adding crystalline glutamine at 1.2% per feed weight to the starter feed, and the N+G group with an experimental feed prepared by adding ribonucleic acid and glutamine at 0.8% and 1.2%, respectively, per feed weight to the starter feed. After two weeks passed, a common diet was fed to all groups. Body weight and residual feed weight were measured to calculate feed intake, body weight gain and feed efficiency on the 7th, 14th, 21st and 28th days after the weaning."}, "[3]": {"details": "8 to 14 days after weaning, not statistically significant"}}, "note": "Marks after values point to notes of the source that are not given here.", "data": [{"compound": "NC(=O)CC[C@H](N)C(=O)O", "note": "[G, glutamine]", "values": [{"measurement": "Average feed intake", "setting": "weaned barrows [1]; 1 to 14 days (test feed)", "result": 0.211, "unit": "kg/day"}, {"measurement": "Body weight gain", "setting": "weaned barrows [1]; 1 to 14 days (test feed)", "result": 0.147, "unit": "kg/day"}, {"measurement": "Feed efficiency", "setting": "weaned barrows [1]; 1 to 14 days (test feed)", "result": 1.439, "unit": "Feed kg/Gain kg"}, {"measurement": "Average feed intake", "setting": "weaned barrows [1]; 15 to 21 days (common feed)", "result": 0.446, "unit": "kg/day"}, {"measurement": "Body weight gain", "setting": "weaned barrows [1]; 15 to 21 days (common feed)", "result": 0.351, "unit": "kg/day"}, {"measurement": "Feed efficiency", "setting": "weaned barrows [1]; 15 to 21 days (common feed)", "result": 1.280, "unit": "Feed kg/Gain kg"}]}, {"compound": "N[C@@H](CCC(=O)O)C(=O)O", "note": "[G, glutamic acid]", "values": [{"measurement": "Average feed intake", "setting": "weaned barrows [1]; 1 to 14 days (test feed)", "result": 0.225, "unit": "kg/day"}, {"measurement": "Body weight gain", "setting": "weaned barrows [1]; 1 to 14 days (test feed)", "result": 0.156, "unit": "kg/day"}, {"measurement": "Feed efficiency", "setting": "weaned barrows [1]; 1 to 14 days (test feed)", "result": 1.453, "unit": "Feed kg/Gain kg"}, {"measurement": "Average feed intake", "setting": "weaned barrows [1]; 15 to 21 days (common feed)", "result": 0.459, "unit": "kg/day"}, {"measurement": "Body weight gain", "setting": "weaned barrows [1]; 15 to 21 days (common feed)", "result": 0.342, "unit": "kg/day"}, {"measurement": "Feed efficiency", "setting": "weaned barrows [1]; 15 to 21 days (common feed)", "result": 1.333, "unit": "Feed kg/Gain kg"}]}, {"compound": "ribonucleic acid", "values": [{"measurement": "Crypt thickness", "setting": "Small Intestinal Villi; Duodenum", "result": "130^ab μm"}, {"measurement": "Villi length", "setting": "Small Intestinal Villi; Duodenum", "result": "385^b μm"}, {"measurement": "Crypt thickness", "setting": "Small Intestinal Villi; Ileum", "result": "128^b μm"}, {"measurement": "Villi length", "setting": "Small Intestinal Villi; Ileum", "result": "344^ab μm"}, {"measurement": "Crypt thickness", "setting": "Small Intestinal Villi; Jejunum", "result": "136^b μm"}, {"measurement": "Villi length", "setting": "Small Intestinal Villi; Jejunum", "result": "406^b μm"}, {"measurement": "villi length compared between groups (in words)", "setting": "Small Intestinal Villi; duodenum, N and G vs C, N+G vs N and G", "result": "significantly longer"}, {"measurement": "crypt thickness compared with the C and G group (in words)", "setting": "Small Intestinal Villi; jejunum and ileum", "result": "significantly thicker"}, {"measurement": "Average feed intake", "setting": "weaned barrows [2]; 0 to 7 days", "result": "0.151^ab kg/day"}, {"measurement": "Body weight gain", "setting": "weaned barrows [2]; 0 to 7 days", "result": "0.102^b kg/day"}, {"measurement": "Feed efficiency", "setting": "weaned barrows [2]; 0 to 7 days", "result": 1.490, "unit": "Feed kg/Gain kg"}, {"measurement": "Average feed intake", "setting": "weaned barrows [2]; 8 to 14 days", "result": 0.291, "unit": "kg/day"}, {"measurement": "Body weight gain", "setting": "weaned barrows [2]; 8 to 14 days", "result": 0.234, "unit": "kg/day"}, {"measurement": "Feed efficiency", "setting": "weaned barrows [2]; 8 to 14 days", "result": 1.252, "unit": "Feed kg/Gain kg"}, {"measurement": "body weight gain per day compared with C group (in words)", "setting": "weaned barrows [2]; [3]", "result": "further increased"}, {"measurement": "feed efficiency compared to the C group and G group (in words)", "setting": "weaned barrows [2]; [3]", "result": "tendency to be improved"}, {"measurement": "body weight gain per day compared with the other groups (in words)", "setting": "weaned barrows [2]; 7 days just after weaning", "result": "not different from the C group"}, {"measurement": "Average feed intake", "setting": "Weaned piglets; 0 to 7 days", "result": 0.159, "unit": "kg/day"}, {"measurement": "Body weight gain", "setting": "Weaned piglets; 0 to 7 days", "result": 0.116, "unit": "kg/day"}, {"measurement": "Feed efficiency", "setting": "Weaned piglets; 0 to 7 days", "result": 1.392, "unit": "Feed kg/Gain kg"}, {"measurement": "Average feed intake", "setting": "Weaned piglets; 0 to 28 days", "result": 0.463, "unit": "kg/day"}, {"measurement": "Body weight gain", "setting": "Weaned piglets; 0 to 28 days", "result": 0.281, "unit": "kg/day"}, {"measurement": "Feed efficiency", "setting": "Weaned piglets; 0 to 28 days", "result": "1.648^bc Feed kg/Gain kg"}, {"measurement": "Average feed intake", "setting": "Weaned piglets; 7 to 14 days", "result": 0.377, "unit": "kg/day"}, {"measurement": "Body weight gain", "setting": "Weaned piglets; 7 to 14 days", "result": 0.301, "unit": "kg/day"}, {"measurement": "Feed efficiency", "setting": "Weaned piglets; 7 to 14 days", "result": 1.256, "unit": "Feed kg/Gain kg"}, {"measurement": "Average feed intake", "setting": "Weaned piglets; 14 to 21 days", "result": 0.525, "unit": "kg/day"}, {"measurement": "Body weight gain", "setting": "Weaned piglets; 14 to 21 days", "result": 0.274, "unit": "kg/day"}, {"measurement": "Feed efficiency", "setting": "Weaned piglets; 14 to 21 days", "result": 1.945, "unit": "Feed kg/Gain kg"}, {"measurement": "Average feed intake", "setting": "Weaned piglets; 21 to 28 days", "result": 0.797, "unit": "kg/day"}, {"measurement": "Body weight gain", "setting": "Weaned piglets; 21 to 28 days", "result": 0.432, "unit": "kg/day"}, {"measurement": "Feed efficiency", "setting": "Weaned piglets; 21 to 28 days", "result": 1.852, "unit": "Feed kg/Gain kg"}, {"measurement": "Average body weight", "setting": "Weaned piglets; 7 days after weaning, test feed days 0-14", "result": 6.17, "unit": "kg"}, {"measurement": "Average body weight", "setting": "Weaned piglets; 14 days after weaning, test feed days 0-14", "result": 8.28, "unit": "kg"}, {"measurement": "Average body weight", "setting": "Weaned piglets; 21 days after weaning, common diet after day 14", "result": 10.20, "unit": "kg"}, {"measurement": "Average body weight", "setting": "Weaned piglets; 28 days after weaning, common diet after day 14", "result": 13.23, "unit": "kg"}, {"measurement": "Average body weight", "setting": "Weaned piglets; at the time of weaning (baseline)", "result": 5.36, "unit": "kg"}, {"measurement": "improvement in feed efficiency compared to the C group (in words)", "setting": "Weaned piglets; whole test period (0 to 28 days after weaning)", "result": "slight improvement in feed efficiency"}]}]}
